The text below walks through data of article PMC10281360 (Microbial Biotechnology, 2023).

The test system of the assay is rAbf43A. As to the kind of experiment: HPLC of released arabinose, Michaelis-Menten non-linear regression. The assay is classed as biochemical, metagenome: lignocellulolytic bacterial consortium EMSD5. The note with it: 0.05 M citric-Na2HPO4 pH 5.0, 40 °C, 10 min; AXHd3 activity; 0-40.0 mM substrate.

Usually Km stands for the substrate concentration at which the rate is half of its maximum. As for `OC[C@@H]1O[C@@H](O[C@@H]2[C@@H](O[C@@H]3O[C@@H](CO)[C@H](O)[C@H]3O)[C@H](O[C@@H]3CO[C@@H](O[C@@H]4COC(O)[C@H](O)[C@H]4O)[C@H](O)[C@H]3O)OC[C@H]2O)[C@H](O)[C@H]1O` (stereo partly drawn) [A2,3XX, 2^3,3^3‐di‐α‐L‐arabinofuranosyl‐xylotriose], the Michaelis constant (Km) amounted to 8.03 mM.
